Experimental data published in ChEMBL document CHEMBL5143638, “Natural aloe emodin-hybridized sulfonamide aminophosphates as novel potential membrane-perturbing and DNA-intercalating agents against Enterococcus faecalis” (Bioorg Med Chem Lett, 2022).
Converted amounts (≈) assume the structure as drawn. The source made the active and inactive calls. No cut-off for these calls is given here.

How the values were obtained:
Klebsiella pneumoniae = experiment: Antibacterial activity against Klebsiella pneumoniae assessed as inhibition of bacterial growth measured after 24 hrs by CLSI based broth microdilution method; type: functional
Enterococcus faecalis [1] = experiment: Antibacterial activity against Enterococcus faecalis assessed as inhibition of bacterial growth measured after 24 hrs by CLSI based broth microdilution method; type: functional
Staphylococcus aureus [2] = experiment: Antibacterial activity against methicillin-resistant Staphylococcus aureus N315 assessed as inhibition of bacterial growth measured after 24 hrs by CLSI based broth microdilution method; type: functional
Staphylococcus aureus [3] = experiment: Antibacterial activity against Staphylococcus aureus assessed as inhibition of bacterial growth measured after 24 hrs by CLSI based broth microdilution method; type: functional
Staphylococcus aureus [4] = experiment: Antibacterial activity against Staphylococcus aureus ATCC 25923 assessed as inhibition of bacterial growth measured after 24 hrs by CLSI based broth microdilution method; type: functional
Escherichia coli [5] = experiment: Antibacterial activity against Escherichia coli assessed as inhibition of bacterial growth measured after 24 hrs by CLSI based broth microdilution method; type: functional
Escherichia coli [6] = experiment: Antibacterial activity against Escherichia coli ATCC 25922 assessed as inhibition of bacterial growth measured after 24 hrs by CLSI based broth microdilution method; type: functional
Pseudomonas aeruginosa [7] = experiment: Antibacterial activity against Pseudomonas aeruginosa assessed as inhibition of bacterial growth measured after 24 hrs by CLSI based broth microdilution method; type: functional
Pseudomonas aeruginosa [8] = experiment: Antibacterial activity against Pseudomonas aeruginosa ATCC 27853 assessed as inhibition of bacterial growth measured after 24 hrs by CLSI based broth microdilution method; type: functional
Acinetobacter baumannii = experiment: Antibacterial activity against Acinetobacter baumannii assessed as inhibition of bacterial growth measured after 24 hrs by CLSI based broth microdilution method; type: functional
Staphylococcus aureus [9] = experiment: Potency index, ratio of sulfisoxazole MIC to test compound MIC for antibacterial activity against Staphylococcus aureus assessed as inhibition of bacterial growth measured after 24 hrs by CLSI based broth microdilution method; type: functional
Staphylococcus aureus [10] = experiment: Potency index, ratio of norfloxacin MIC to test compound MIC for antibacterial activity against Staphylococcus aureus assessed as inhibition of bacterial growth measured after 24 hrs by CLSI based broth microdilution method; type: functional
Staphylococcus aureus [11] = experiment: Potency index, ratio of norfloxacin MIC to test compound MIC for antibacterial activity against methicillin-resistant Staphylococcus aureus N315 assessed as inhibition of bacterial growth measured after 24 hrs by CLSI based broth microdilution method; type: functional
Enterococcus faecalis [12] = experiment: Bactericidal activity against Enterococcus faecalis assessed as reduction in colony forming units at 4 times MIC measured after 1.5 to 6 hrs by time-kill kinetics assay; type: functional; details: time 1.5-6 hrs
Erythrocyte [13] = experiment: Hemolytic activity in human RBC at 512 ug/ml incubated for 2 hrs by microplate reader analysis; type: toxicity, cell-based; details: dose 512 µg/ml
Erythrocyte [14] = experiment: Hemolytic activity in human RBC assessed as morphological changes at 512 ug/ml incubated for 2 hrs by microscopic analysis; type: toxicity, cell-based; details: dose 512 µg/ml
Cell membrane [15] = experiment: Disruption of membrane integrity in Escherichia coli ATCC 25922 assessed as membrane damage by measuring PI fluorescence at 1 to 8 times MIC incubated for 8 hrs by PI staining based analysis; type: subcellular
Cell membrane [16] = experiment: Disruption of membrane integrity in Enterococcus faecalis assessed as membrane damage by measuring PI fluorescence at 1 to 8 times MIC incubated for 8 hrs by PI staining based analysis; type: subcellular
Cell membrane [17] = experiment: Disruption of membrane integrity in Enterococcus faecalis assessed as membrane damage by measuring PI-DNA complex formation at 2 times MIC incubated for 20 to 200 mins by PI staining based analysis; details: time 20-200 min, TDE = time-dependent effect
Cell membrane [18] = experiment: Disruption of membrane integrity in Enterococcus faecalis assessed as membrane damage by measuring increase in red fluorescence at 2 to 8 times MIC incubated for 8 hrs by PI staining based fluorescence microscopic analysis; type: subcellular
Cell membrane [19] = experiment: Induction of membrane depolarization in Enterococcus faecalis assessed as increase in fluorescence intensity at 1 times MIC measured after 10 to 60 mins by diSC35 dye based fluorescence assay; type: subcellular; details: time 10-60 min, TDE = time-dependent effect
Cell membrane [20] = experiment: Induction of membrane damage in Enterococcus faecalis assessed as increase in protein leakage measured after 6 hrs by Bradford assay; type: subcellular; details: DDE = dose-dependent effect
Enterococcus faecalis [21] = experiment: Antibiofilm activity against Enterococcus faecalis assessed as reduction in biofilm formation at MIC measured after 24 hrs by crystal violet staining based analysis relative to control; type: functional; set-up: scale not given: the % may be the effect or the level left
Enterococcus faecalis [22] = experiment: Antibiofilm activity against Enterococcus faecalis assessed as reduction in biofilm formation at upto 8 times MIC measured after 24 hrs by crystal violet staining based analysis relative to control; type: functional; set-up: scale not given: the % may be the effect or the level left
Enterococcus faecalis [23] = experiment: Induction of intracellular ROS production in Enterococcus faecalis assessed as fold increase in intracellular ROS level at 0.25 ug/ml incubated for 6 hrs by DCFH-DA assay relative to control; type: functional; details: dose 0.25 µg/ml
Enterococcus faecalis [24] = experiment: Induction of intracellular ROS production in Enterococcus faecalis assessed as fold increase in intracellular ROS level at 2 ug/ml incubated for 6 hrs by DCFH-DA assay relative to control; type: functional; details: dose 2 µg/ml
Calf thymus DNA [25] = experiment: Binding affinity to calf thymus DNA assessed as compound-DNA complex formation by measuring hypochromic shift by UV-visible absorption spectrophotometric method; type: nucleic-acid assay; details: Bos taurus
Calf thymus DNA [26] = experiment: Binding affinity to calf thymus DNA assessed as DNA intercalation by neutral red dye uptake method; type: nucleic-acid assay; details: Bos taurus

Structure (SMILES): CCCCOP(=O)(OCCCC)C(Nc1ccc(S(=O)(=O)Nc2onc(C)c2C)cc1)c1cc(O)c2c(c1)C(=O)c1cccc(O)c1C2=O (stereo not drawn)
- MIC (Klebsiella pneumoniae): 16 mg/L (≈ 22.5 µM)
- MIC (Enterococcus faecalis [1]): 128 mg/L (≈ 180 µM)
- MIC (Staphylococcus aureus [2]): 64 mg/L (≈ 89.9 µM)
- MIC (Staphylococcus aureus [3]): 4 mg/L (≈ 5.62 µM)
- MIC (Staphylococcus aureus [4]): 2 mg/L (≈ 2.81 µM)
- MIC (Escherichia coli [5]): 256 mg/L (≈ 360 µM)
- MIC (Escherichia coli [6]): 8 mg/L (≈ 11.2 µM)
- MIC (Pseudomonas aeruginosa [7]): 8 mg/L (≈ 11.2 µM)
- MIC (Pseudomonas aeruginosa [8]): 256 mg/L (≈ 360 µM)
- MIC (Acinetobacter baumannii): 8 mg/L (≈ 11.2 µM)
- Ratio (Staphylococcus aureus [9]): 4
- Ratio (Staphylococcus aureus [10]): 2

Structure (SMILES): CCOP(=O)(OCC)C(Nc1ccc(S(=O)(=O)Nc2ccccn2)cc1)c1cc(O)c2c(c1)C(=O)c1cccc(O)c1C2=O (stereo not drawn)
- MIC (Klebsiella pneumoniae): 256 mg/L (≈ 402 µM)
- MIC (Enterococcus faecalis [1]): 64 mg/L (≈ 100 µM)
- MIC (Staphylococcus aureus [2]): 2 mg/L (≈ 3.14 µM)
- MIC (Staphylococcus aureus [3]): 64 mg/L (≈ 100 µM)
- MIC (Staphylococcus aureus [4]): 128 mg/L (≈ 201 µM)
- MIC (Escherichia coli [5]): 256 mg/L (≈ 402 µM)
- MIC (Escherichia coli [6]): 256 mg/L (≈ 402 µM)
- MIC (Pseudomonas aeruginosa [7]): 256 mg/L (≈ 402 µM)
- MIC (Pseudomonas aeruginosa [8]): 64 mg/L (≈ 100 µM)
- MIC (Acinetobacter baumannii): 128 mg/L (≈ 201 µM)
- Ratio (Staphylococcus aureus [11]): 4

Structure (SMILES): CCOP(=O)(OCC)C(Nc1ccc(S(=O)(=O)Nc2ncccn2)cc1)c1cc(O)c2c(c1)C(=O)c1cccc(O)c1C2=O (stereo not drawn)
- MIC (Klebsiella pneumoniae): 0.5 mg/L (≈ 0.783 µM)
- MIC (Enterococcus faecalis [1]): 0.25 mg/L (≈ 0.391 µM)
- MIC (Staphylococcus aureus [2]): 8 mg/L (≈ 12.5 µM)
- MIC (Staphylococcus aureus [3]): 128 mg/L (≈ 200 µM)
- MIC (Staphylococcus aureus [4]): 2 mg/L (≈ 3.13 µM)
- MIC (Escherichia coli [5]): 2 mg/L (≈ 3.13 µM)
- MIC (Escherichia coli [6]): 0.25 mg/L (≈ 0.391 µM)
- MIC (Pseudomonas aeruginosa [7]): 8 mg/L (≈ 12.5 µM)
- MIC (Pseudomonas aeruginosa [8]): 0.25 mg/L (≈ 0.391 µM)
- MIC (Acinetobacter baumannii): 16 mg/L (≈ 25.1 µM)
- Activity (Enterococcus faecalis [12]): 3 log10CFU/ml
- Activity (Erythrocyte [13]): Non-Toxic
- Activity (Erythrocyte [14]): Non-Toxic
- Activity (Cell membrane [15]): Active
- Activity (Cell membrane [16]): Active
- Activity (Cell membrane [17]): Tde
- Activity (Cell membrane [18]): Active
- Activity (Cell membrane [19]): Tde
- Activity (Cell membrane [20]): Dde
- Activity (Enterococcus faecalis [21]): 30%
- Activity (Enterococcus faecalis [22]): <=79%
- fold change (FC) (Enterococcus faecalis [23]): 1.2
- fold change (FC) (Enterococcus faecalis [24]): 2.4
- Activity (Calf thymus DNA [25]): Active
- Activity (Calf thymus DNA [26]): Active
